Experimental findings from BindingDB's records for doi:10.1016/S0960-894X(01)80247-X (1994) are described below.

For experiment [1], the target named is T1, Endothelin receptor type B (Rattus norvegicus, UniProt P21451).
T1 sequence (P21451 whole entry): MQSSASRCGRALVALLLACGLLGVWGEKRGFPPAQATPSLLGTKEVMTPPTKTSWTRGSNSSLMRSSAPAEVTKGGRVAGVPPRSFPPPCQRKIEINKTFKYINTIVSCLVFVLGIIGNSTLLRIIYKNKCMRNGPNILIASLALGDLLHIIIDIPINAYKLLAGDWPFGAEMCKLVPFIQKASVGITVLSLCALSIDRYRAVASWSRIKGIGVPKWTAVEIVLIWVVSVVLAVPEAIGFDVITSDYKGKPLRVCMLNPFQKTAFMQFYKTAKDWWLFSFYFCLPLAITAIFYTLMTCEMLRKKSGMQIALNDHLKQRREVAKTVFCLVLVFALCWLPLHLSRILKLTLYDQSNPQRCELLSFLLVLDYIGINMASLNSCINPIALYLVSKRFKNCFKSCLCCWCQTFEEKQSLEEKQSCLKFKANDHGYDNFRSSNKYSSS
In words: Concentration required to produce 50% inhibition of binding against ET B receptor obtained from rat brain membrane.

The target in experiment [2] is T2, Endothelin-1 receptor (Rattus norvegicus, UniProt P26684).
T2 sequence (P26684 whole entry): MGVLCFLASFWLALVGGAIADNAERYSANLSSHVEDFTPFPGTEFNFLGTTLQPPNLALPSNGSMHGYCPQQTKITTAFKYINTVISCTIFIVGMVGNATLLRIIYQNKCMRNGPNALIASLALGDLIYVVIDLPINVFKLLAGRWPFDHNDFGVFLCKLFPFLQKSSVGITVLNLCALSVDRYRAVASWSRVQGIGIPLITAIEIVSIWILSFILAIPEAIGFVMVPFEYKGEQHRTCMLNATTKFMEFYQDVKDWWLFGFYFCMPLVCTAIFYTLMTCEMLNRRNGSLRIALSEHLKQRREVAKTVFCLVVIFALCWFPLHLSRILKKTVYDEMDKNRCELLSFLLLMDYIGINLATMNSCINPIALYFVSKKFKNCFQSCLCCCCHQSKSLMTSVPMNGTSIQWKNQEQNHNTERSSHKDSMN
Briefly: Concentration required to produce 50% inhibition of binding against ET A receptor obtained from rat thoracic aortic membrane.

Turning to `CCC(CC)C[C@@H](NC(=O)[C@@H](NC(=O)[C@H](CC(=O)O)NC(=O)[C@H](CC(C)C)NC(=O)[C@H](Cc1cnc[nH]1)NC(=O)[C@H](CS)NC(=O)[C@H](Cc1ccccc1)NC(=O)[C@H](Cc1ccc(O)cc1)NC(=O)[C@@H](NC(=O)[C@H](CS)NC(=O)[C@H](CCC(=O)O)NC(=O)[C@H](CCCCN)NC(=O)[C@H](CC(=O)O)NC(=O)[C@H](CCSC)NC(=O)[C@H](CC(C)C)NC(=O)[C@H](CO)NC(=O)[C@H](CO)NC(=O)[C@H](CS)NC(=O)[C@H](CO)NC(=O)[C@@H](N)CS)C(C)C)[C@H](C)CC)C(=O)N[C@@H](Cc1c[nH]c2ccccc12)C(=O)O` [Endothelin-1 analogue], the pIC50 (in general, the negative decadic logarithm of the IC50, by convention in mol/L) came out at 9.78 in experiment [1] and 8.06 in experiment [2].
With `CC[C@@H](C)[C@@H](NC(=O)[C@@H](NC(=O)[C@H](CC(=O)O)NC(=O)[C@H](CC(C)C)NC(=O)[C@H](Cc1cnc[nH]1)NC(=O)[C@H](CS)NC(=O)[C@H](Cc1ccccc1)NC(=O)[C@H](Cc1ccc(O)cc1)NC(=O)[C@@H](NC(=O)[C@H](CS)NC(=O)[C@H](CCC(=O)O)NC(=O)[C@H](CCCCN)NC(=O)[C@H](CC(=O)O)NC(=O)[C@H](CCSC)NC(=O)[C@H](CC(C)C)NC(=O)[C@H](CO)NC(=O)[C@H](CO)NC(=O)[C@H](CS)NC(=O)[C@H](CO)NC(=O)[C@@H](N)CS)C(C)C)[C@@H](C)CC)C(=O)N[C@@H](Cc1c[nH]c2ccccc12)C(=O)O` [Endothelin-1 analogue], the pIC50 in experiment [2] amounted to 7.59.
`CC[C@@H](C)[C@H](NC(=O)[C@H](CC(=O)O)NC(=O)[C@H](CC(C)C)NC(=O)[C@H](Cc1cnc[nH]1)NC(=O)[C@H](CS)NC(=O)[C@H](Cc1ccccc1)NC(=O)[C@H](Cc1ccc(O)cc1)NC(=O)[C@@H](NC(=O)[C@H](CS)NC(=O)[C@H](CCC(=O)O)NC(=O)[C@H](CCCCN)NC(=O)[C@H](CC(=O)O)NC(=O)[C@H](CCSC)NC(=O)[C@H](CC(C)C)NC(=O)[C@H](CO)NC(=O)[C@H](CO)NC(=O)[C@H](CS)NC(=O)[C@H](CO)NC(=O)[C@@H](N)CS)C(C)C)C(=O)N[C@@H](C(=O)N[C@@H](Cc1c[nH]c2ccccc12)C(=O)O)C(C)C` [Endothelin-1 analogue]: the pIC50 is 9.05 in experiment [1] and 9 in experiment [2].
Turning to `CC[C@@H](C)[C@H](NC(=O)[C@H](CC(=O)O)NC(=O)[C@H](CC(C)C)NC(=O)[C@H](Cc1cnc[nH]1)NC(=O)[C@H](CS)NC(=O)[C@H](Cc1ccccc1)NC(=O)[C@H](Cc1ccc(O)cc1)NC(=O)[C@@H](NC(=O)[C@H](CS)NC(=O)[C@H](CCC(=O)O)NC(=O)[C@H](CCCCN)NC(=O)[C@H](CC(=O)O)NC(=O)[C@H](CCSC)NC(=O)[C@H](CC(C)C)NC(=O)[C@H](CO)NC(=O)[C@H](CO)NC(=O)[C@H](CS)NC(=O)[C@H](CO)NC(=O)[C@@H](N)CS)C(C)C)C(=O)N[C@H](CC(C)C)C(=O)N[C@@H](Cc1c[nH]c2ccccc12)C(=O)O` [Endothelin-1 analogue], the pIC50 came out at 9.94 in experiment [1] and 7.97 in experiment [2].
For `CC[C@@H](C)[C@H](NC(=O)[C@H](CC(=O)O)NC(=O)[C@H](CC(C)C)NC(=O)[C@H](Cc1cnc[nH]1)NC(=O)[C@H](CS)NC(=O)[C@H](Cc1ccccc1)NC(=O)[C@H](Cc1ccc(O)cc1)NC(=O)[C@@H](NC(=O)[C@H](CS)NC(=O)[C@H](CCC(=O)O)NC(=O)[C@H](CCCCN)NC(=O)[C@H](CC(=O)O)NC(=O)[C@H](CCSC)NC(=O)[C@H](CC(C)C)NC(=O)[C@H](CO)NC(=O)[C@H](CO)NC(=O)[C@H](CS)NC(=O)[C@H](CO)NC(=O)[C@@H](N)CS)C(C)C)C(=O)N[C@H](CCC(N)=O)C(=O)N[C@@H](Cc1c[nH]c2ccccc12)C(=O)O` [Endothelin-1 analogue], the pIC50 is 5.59 in experiment [1] and 5.27 in experiment [2].
`CC[C@@H](C)[C@H](NC(=O)[C@H](CC(=O)O)NC(=O)[C@H](CC(C)C)NC(=O)[C@H](Cc1cnc[nH]1)NC(=O)[C@H](CS)NC(=O)[C@H](Cc1ccccc1)NC(=O)[C@H](Cc1ccc(O)cc1)NC(=O)[C@@H](NC(=O)[C@H](CS)NC(=O)[C@H](CCC(=O)O)NC(=O)[C@H](CCCCN)NC(=O)[C@H](CC(=O)O)NC(=O)[C@H](CCSC)NC(=O)[C@H](CC(C)C)NC(=O)[C@H](CO)NC(=O)[C@H](CO)NC(=O)[C@H](CS)NC(=O)[C@H](CO)NC(=O)[C@@H](N)CS)C(C)C)C(=O)N[C@H](Cc1cnc[nH]1)C(=O)N[C@@H](Cc1c[nH]c2ccccc12)C(=O)O` [Endothelin-1 analogue]: the pIC50 was determined as 7.55 in experiment [1] and 6.13 in experiment [2].
As to `CC[C@H](C)[C@H](NC(=O)[C@H](CC(=O)O)NC(=O)[C@H](CC(C)C)NC(=O)[C@H](Cc1cnc[nH]1)NC(=O)[C@H](CS)NC(=O)[C@H](Cc1ccccc1)NC(=O)[C@H](Cc1ccc(O)cc1)NC(=O)[C@@H](NC(=O)[C@H](CS)NC(=O)[C@H](CCC(=O)O)NC(=O)[C@H](CCCCN)NC(=O)[C@H](CC(=O)O)NC(=O)[C@H](CCSC)NC(=O)[C@H](CC(C)C)NC(=O)[C@H](CO)NC(=O)[C@H](CO)NC(=O)[C@H](CS)NC(=O)[C@H](CO)NC(=O)[C@@H](N)CS)C(C)C)C(=O)N[C@@H](C(=O)N[C@@H](Cc1c[nH]c2ccccc12)C(=O)O)C1CCCCC1` [Endothelin-1 analogue], the pIC50 in experiment [1] amounted to 9.59; in experiment [2], 7.04.
The matching figures for `CC[C@H](C)[C@H](NC(=O)[C@H](CC(=O)O)NC(=O)[C@H](CC(C)C)NC(=O)[C@H](Cc1cnc[nH]1)NC(=O)[C@H](CS)NC(=O)[C@H](Cc1ccccc1)NC(=O)[C@H](Cc1ccc(O)cc1)NC(=O)[C@@H](NC(=O)[C@H](CS)NC(=O)[C@H](CCC(=O)O)NC(=O)[C@H](CCCCN)NC(=O)[C@H](CC(=O)O)NC(=O)[C@H](CCSC)NC(=O)[C@H](CC(C)C)NC(=O)[C@H](CO)NC(=O)[C@H](CO)NC(=O)[C@H](CS)NC(=O)[C@H](CO)NC(=O)[C@@H](N)CS)C(C)C)C(=O)N[C@@H](C(=O)N[C@@H](Cc1c[nH]c2ccccc12)C(=O)O)c1ccccc1` [Endothelin-1 analogue]: 8.6 and 6.85.
The like results for `CC[C@H](C)[C@H](NC(=O)[C@H](CC(=O)O)NC(=O)[C@H](CC(C)C)NC(=O)[C@H](Cc1cnc[nH]1)NC(=O)[C@H](CS)NC(=O)[C@H](Cc1ccccc1)NC(=O)[C@H](Cc1ccc(O)cc1)NC(=O)[C@@H](NC(=O)[C@H](CS)NC(=O)[C@H](CCC(=O)O)NC(=O)[C@H](CCCCN)NC(=O)[C@H](CC(=O)O)NC(=O)[C@H](CCSC)NC(=O)[C@H](CC(C)C)NC(=O)[C@H](CO)NC(=O)[C@H](CO)NC(=O)[C@H](CS)NC(=O)[C@H](CO)NC(=O)[C@@H](N)CS)C(C)C)C(=O)N[C@@H](Cc1c[nH]c2ccccc12)C(=O)N[C@@H](Cc1c[nH]c2ccccc12)C(=O)O` [Endothelin-1 analogue] were, in that order, 9.77 and 6.71.
`CC[C@H](C)[C@H](NC(=O)[C@H](CC(=O)O)NC(=O)[C@H](CC(C)C)NC(=O)[C@H](Cc1cnc[nH]1)NC(=O)[C@H](CS)NC(=O)[C@H](Cc1ccccc1)NC(=O)[C@H](Cc1ccc(O)cc1)NC(=O)[C@@H](NC(=O)[C@H](CS)NC(=O)[C@H](CCC(=O)O)NC(=O)[C@H](CCCCN)NC(=O)[C@H](CC(=O)O)NC(=O)[C@H](CCSC)NC(=O)[C@H](CC(C)C)NC(=O)[C@H](CO)NC(=O)[C@H](CO)NC(=O)[C@H](CS)NC(=O)[C@H](CO)NC(=O)[C@@H](N)CS)C(C)C)C(=O)N[C@H](C(=O)N[C@@H](Cc1c[nH]c2ccccc12)C(=O)O)[C@@H](C)CC` [Endothelin-1 analogue] showed a pIC50 in experiment [2] of 9.93.
As for `CC[C@H](C)[C@H](NC(=O)[C@H](CC(=O)O)NC(=O)[C@H](CC(C)C)NC(=O)[C@H](Cc1cnc[nH]1)NC(=O)[C@H](CS)NC(=O)[C@H](Cc1ccccc1)NC(=O)[C@H](Cc1ccc(O)cc1)NC(=O)[C@@H](NC(=O)[C@H](CS)NC(=O)[C@H](CCC(=O)O)NC(=O)[C@H](CCCCN)NC(=O)[C@H](CC(=O)O)NC(=O)[C@H](CCSC)NC(=O)[C@H](CC(C)C)NC(=O)[C@H](CO)NC(=O)[C@H](CO)NC(=O)[C@H](CS)NC(=O)[C@H](CO)NC(=O)[C@@H](N)CS)C(C)C)C(=O)N[C@H](C(=O)N[C@@H](Cc1c[nH]c2ccccc12)C(=O)O)c1ccccc1` [Endothelin-1 analogue], the values for the pIC50 in experiment [1] and in experiment [2] were 9.76 and 8.89, respectively.
Take `CC[C@H](C)[C@H](NC(=O)[C@H](CC(=O)O)NC(=O)[C@H](CC(C)C)NC(=O)[C@H](Cc1cnc[nH]1)NC(=O)[C@H](CS)NC(=O)[C@H](Cc1ccccc1)NC(=O)[C@H](Cc1ccc(O)cc1)NC(=O)[C@@H](NC(=O)[C@H](CS)NC(=O)[C@H](CCC(=O)O)NC(=O)[C@H](CCCCN)NC(=O)[C@H](CC(=O)O)NC(=O)[C@H](CCSC)NC(=O)[C@H](CC(C)C)NC(=O)[C@H](CO)NC(=O)[C@H](CO)NC(=O)[C@H](CS)NC(=O)[C@H](CO)NC(=O)[C@@H](N)CS)C(C)C)C(=O)N[C@H](C)C(=O)N[C@@H](Cc1c[nH]c2ccccc12)C(=O)O` [Endothelin-1 analogue]: the values for the pIC50 in experiment [1] and in experiment [2] were 7.96 and 5.77, respectively.
